Measured values reported in patent publication US12577234B2, “Antagonists of the muscarinic acetylcholine receptor M4” (Vanderbilt University, priority 2017, dated 2026).

Legend:
M4 knockout mice = conditions: but not the other four mAChR subtypes; cited from earlier work
[1] = test system: haloperidol-induced catalepsy in mice; assay: catalepsy induced by the DA receptor antagonist haloperidol; format: in vivo
human mAChR M4 = target: T1, human mAChR M4 (Homo sapiens, UniProt P08173); assay: mAChR M4 cell-based functional assay (calcium mobilization, EC80 acetylcholine), human M4; conditions: Table 10; for IC50: M4/Gqi5/CHO-K1 cells, decrease of EC80 acetylcholine response
T1 construct: expressed in transfected cells; host or cells: CHO-K1 (ATCC), stably co-expressing chimeric G protein Gqi5
T1 sequence (P08173 1-479): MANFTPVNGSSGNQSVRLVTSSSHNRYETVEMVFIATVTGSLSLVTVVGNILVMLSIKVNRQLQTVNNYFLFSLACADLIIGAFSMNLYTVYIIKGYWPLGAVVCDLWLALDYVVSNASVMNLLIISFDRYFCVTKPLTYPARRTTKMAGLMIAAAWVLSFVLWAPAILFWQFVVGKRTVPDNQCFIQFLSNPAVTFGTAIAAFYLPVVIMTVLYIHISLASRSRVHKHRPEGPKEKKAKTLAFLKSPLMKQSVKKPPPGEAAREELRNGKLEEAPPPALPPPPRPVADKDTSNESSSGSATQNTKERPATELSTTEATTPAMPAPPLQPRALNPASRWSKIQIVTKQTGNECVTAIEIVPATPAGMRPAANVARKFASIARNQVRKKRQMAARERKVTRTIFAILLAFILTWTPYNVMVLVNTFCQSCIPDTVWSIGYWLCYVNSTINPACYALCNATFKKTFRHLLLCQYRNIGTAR
Procedure, shortened: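 CHO-K1 cells stably expressing human M4 with chimeric Gqi5; intracellular calcium rise read on FDSS as fluorescence static ratio at 1 Hz. Compounds in 10-point 1:3 dilution series; IC50 taken as concentration-dependent decrease of the EC80 acetylcholine response, four-parameter logistic fit.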

rat mAChR M4 = target: T2, rat mAChR M4 (Rattus norvegicus, UniProt P08485); assay: mAChR M4 cell-based functional assay (calcium mobilization, EC80 acetylcholine), rat M4; conditions: Table 10; for IC50: M4/Gqi5/CHO-K1 cells, decrease of EC80 acetylcholine response
T2 construct: expressed in transfected cells; host or cells: CHO-K1 (ATCC), stably co-expressing chimeric G protein Gqi5
T2 sequence (P08485 1-478): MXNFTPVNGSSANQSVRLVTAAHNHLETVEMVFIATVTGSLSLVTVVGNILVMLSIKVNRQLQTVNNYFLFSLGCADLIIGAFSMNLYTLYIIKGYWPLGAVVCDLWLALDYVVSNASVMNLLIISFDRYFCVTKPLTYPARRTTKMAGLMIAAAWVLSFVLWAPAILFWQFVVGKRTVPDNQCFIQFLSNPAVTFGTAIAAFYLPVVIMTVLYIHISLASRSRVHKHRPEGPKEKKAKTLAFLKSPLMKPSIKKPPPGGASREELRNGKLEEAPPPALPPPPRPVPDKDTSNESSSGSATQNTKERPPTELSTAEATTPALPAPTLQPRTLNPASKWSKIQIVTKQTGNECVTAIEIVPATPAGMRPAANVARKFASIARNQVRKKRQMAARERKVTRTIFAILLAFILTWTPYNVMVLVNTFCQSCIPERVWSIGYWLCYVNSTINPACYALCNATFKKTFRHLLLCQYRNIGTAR
Protocol: Human or rat M4 cDNA, along with the chimeric G protein Gqi5, were transfected into Chinese hamster ovary (CHO-K1) cells purchased from the American Type Culture Collection using Lipofectamine2000. M4/Gqi5/CHO cells were grown in Ham's F-12 medium containing 10% heat-inactivated fetal bovine serum (FBS), 20 mM HEPES, 500 μg/mL G418 sulfate, and 200 μg/mL Hygromycin B.
For high throughput measurement of agonist-evoked increases in intracellular calcium, CHO-K1 cells stably expressing muscarinic receptors were plated in growth medium lacking G418 and hygromycin at 15,000 cells/20 μL/well in Greiner 384-well black-walled, tissue culture (TC)-treated, clear-bottom plates (VWR). Cells were incubated overnight at 37° C. and 5% CO2. The next day, cells were washed using an ELX 405 (BioTek) with assay buffer; the final volume was then aspirated to 20 μL. Next, 20 μL of a 2.3 μM stock of Fluo-4/acetoxymethyl ester (Invitrogen, Carlsbad, CA), prepared as a 2.3 mM stock in DMSO and mixed in a 1:1 ratio with 10% (w/v) Pluronic F-127 and diluted in assay buffer, was added to the wells and the cell plates were incubated for 50 min at 37° C. and 5% CO2. Dye was removed by washing with the ELX 405 and the final volume was aspirated to 20 μL. Compound master plates were formatted in a 10 point concentration-response curve (CRC) format (1:3 dilutions) in 100% DMSO with a starting concentration of 10 or 1 mM using a BRAVO liquid handler (Agilent). Test compound CRCs were then transferred to daughter plates (240 nL) using the Echo acoustic plate reformatter (Labcyte, Sunnyvale, CA) and then diluted into assay buffer (40 μL) to a 2× stock using a Thermo Fisher Combi (Thermo Fisher Scientific, Waltham, MA).
Calcium flux was measured using the Functional Drug Screening System (FDSS) 6000 or 7000 (Hamamatsu Corporation, Tokyo, Japan) as an increase in the fluorescent static ratio. Compounds were applied to cells (20 μL, 2×) using the automated system of the FDSS at 2 seconds into the protocol and the data were collected at 1 Hz. At 143 s, 10 μL of an EC20 concentration of the muscarinic receptor agonist acetylcholine was added (5×), followed by the addition of 12 μL of an EC80 concentration of acetylcholine at the 268 s time point (5×). Agonist activity was analyzed as a concentration-dependent increase in calcium mobilization upon compound addition. Positive allosteric modulator activity was analyzed as a concentration-dependent increase in the EC20 acetylcholine response. Antagonist activity was analyzed as a concentration-dependent decrease in the EC80 acetylcholine response; for the purposes of the tables herein, an IC50 (inhibitory concentration 50) was calculated as a concentration-dependent decrease of the response elicited by an EC80 concentration of acetylcholine. Concentration-response curves were generated using a four-parameter logistical equation in XLFit curve fitting software (IDBS, Bridgewater, NJ) for Excel (Microsoft, Redmond, WA) or Prism (GraphPad Software, Inc., San Diego, CA) or the Dotmatics software platform (Dotmatics, Bishop's Stortford, UK).

Compound | Human M4 Emin (human mAChR M4) [%] | IC50 (human mAChR M4) [nM] | Rat M4 Emin (rat mAChR M4) [%] | IC50 (rat mAChR M4) [nM] | locomotor-activating effects (M4 knockout mice) | reduction of haloperidol-induced catalepsy ([1]; M4KO mice) | reversal of haloperidol-induced catalepsy ([1]; WT mice)
CN1[C@@H]2C[C@@H](OC(=O)[C@H](CO)c3ccccc3)C[C@H]1[C@@H]1O[C@@H]12 [scopolamine] | – | – | – | – | dramatically reduced | ineffective in reducing catalepsy | completely reversed
CC(=O)Nc1ccc(-c2ccc(O[C@H]3C[C@@H]4CN(CC5CCOCC5)C[C@@H]4C3)nn2)cc1 [Compound 132, N-[4-[6-[[(3aR,5s,6aS)-2-(tetrahydropyran-4-ylmethyl)-3,3a,4,5,6,6a-hexahydro-1H-cyclopenta[c]pyrrol-5-yl]oxy]pyridazin-3-yl]phenyl]acetamide] | 6 | 648 | 6 | 995 | – | – | –
CC(C)(C)CCN1C[C@H]2C[C@H](Nc3ccc(-c4ccc(F)cc4Cl)nn3)C[C@H]2C1 [Compound 141, (3aR,5s,6aS)-N-[6-(2-chloro-4-fluoro-phenyl)pyridazin-3-yl]-2-(3,3-dimethylbutyl)-3,3a,4,5,6,6a-hexahydro-1H-cyclopenta[c]pyrrol-5-amine] | 4 | 14.8 | 3 | 138 | – | – | –

Continued by falling IC50 (human mAChR M4), values first:

Human M4 Emin (human mAChR M4) [%] | IC50 (human mAChR M4) [nM] | Rat M4 Emin (rat mAChR M4) [%] | IC50 (rat mAChR M4) [nM] | Compound | locomotor-activating effects (M4 knockout mice) | reduction of haloperidol-induced catalepsy ([1]; M4KO mice) | reversal of haloperidol-induced catalepsy ([1]; WT mice)
3 | 59.1 | 3 | 382 | CC(C)(C)CCN1C[C@H]2C[C@H](Oc3ccc(-c4ccc5c(c4)OCO5)nn3)C[C@H]2C1 [Compound 138, (3aR,5s,6aS)-5-[6-(1,3-benzodioxol-5-yl)pyridazin-3-yl]oxy-2-(3,3-dimethylbutyl)-3,3a,4,5,6,6a-hexahydro-1H-cyclopenta[c]pyrrole] | – | – | –
6 | 22 | 14 | 605 | c1csc(-c2ccc(N[C@H]3C[C@@H]4CN(CC5CCOCC5)C[C@@H]4C3)nn2)c1 [Compound 226, (3aR,5s,6aS)-2-(tetrahydropyran-4-ylmethyl)-N-[6-(2-thienyl)pyridazin-3-yl]-3,3a,4,5,6,6a-hexahydro-1H-cyclopenta[c]pyrrol-5-amine] | – | – | –
3 | 6.39 | 6 | 121 | FC(F)Oc1ccc(-c2ccc(N[C@H]3C[C@@H]4CN(CC5CCOCC5)C[C@@H]4C3)nn2)cc1 [Compound 223, (3aR,5s,6aS)-N-[6-[4-(difluoromethoxy)phenyl]pyridazin-3-yl]-2-(tetrahydropyran-4-ylmethyl)-3,3a,4,5,6,6a-hexahydro-1H-cyclopenta[c]pyrrol-5-amine] | – | – | –
